The target of one assay is wild type human HSD17B13 (Homo sapiens (Human), UniProt Q7Z5P4). Description: HEK_Beta-Est LCMS_IC50_Tekcel, whole-cell HEK-HSD17B13 inhibition assay, estrone production by LCMS. Format: cell-based. To be noted: geometric mean, HEK cells stably expressing wild type human HSD17B13, 25 μM FAC beta-estradiol, read-out: HEK_Beta-Est LCMS_IC50—Tekcel GMean IC50. The method, boiled down: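 Readout was LCMS quantitation of estrone made from beta-estradiol with NAD+ as cofactor. Whole HEK-HSD17B13 cells were given compound for 1 hour, then the reaction for 2 hours, both at 37° C. Product area ratios were normalized to vehicle controls as zero percent effect.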
wild type human HSD17B13, sequence (Q7Z5P4 20-300): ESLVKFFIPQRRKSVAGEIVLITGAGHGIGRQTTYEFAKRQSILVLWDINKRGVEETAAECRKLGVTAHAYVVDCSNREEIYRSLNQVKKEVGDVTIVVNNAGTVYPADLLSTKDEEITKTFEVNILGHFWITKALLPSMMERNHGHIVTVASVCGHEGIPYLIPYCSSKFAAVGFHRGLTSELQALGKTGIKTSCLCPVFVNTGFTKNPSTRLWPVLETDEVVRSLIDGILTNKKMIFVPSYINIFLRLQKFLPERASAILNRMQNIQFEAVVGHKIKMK

The target in another assay is HSD17B13 enzyme (Homo sapiens (Human), UniProt Q7Z5P4). Description: hHSD17B13 IC50 Assay (FAC beta-estradiol), purified protein enzyme activity assay with NAD(P)H-Glo luciferase readout. It counts as biochemical. The conditions noted are these: geometric mean, 12 μM FAC beta-estradiol, 500 μM NAD+, read-out: hHSD17B13_IC50 GMean IC50. How it is done:
The following protocols may of course be varied by those skilled in the art. hHSD17B13 IC50 Assay (FAC beta-estradiol)
HSD17B13 enzyme inhibition potency of test compounds was determined using a purified protein biochemical enzyme activity assay, using NAD(P)H-Glo luciferase readout (Promega). HSD17B13 enzyme uses the oxidized form of nicotinamide adenine dinucleotide (NAD+) as a cofactor during metabolism of Beta-Estradiol (substrate) to […], while converting NAD+ to the reduced form (NADH). The Promega NAD(P)H-Glo™ assay is a homogeneous bioluminescent assay that generates a light signal from biochemical reactions that contain NADH (or nicotinamide adenine dinucleotide phosphate, NADPH). In the presence of NADH (or NADPH), the enzyme Reductase reduces a proluciferin reductase substrate to form luciferin. Luciferin then is quantified using Ultra-Glo™ Recombinant Luciferase (rLuciferase), and the light signal produced is proportional to the amount of NAD(P)H in the sample. […] The reaction was initiated by the addition of 2 μL/well purified HSD17B13 protein (30 nM FAC in assay buffer). Compound, substrate mix and HSD17B13 protein was incubated in the dark at room temperature for 2 hours before the addition of 3 μL/well NAD(P)H-Glo detection reagent, prepared from luciferase detection reagent and reductase/reductase substrate, as per manufacturer's instructions (Promega, G9061). Detection reagent was incubated in the dark for 1 hour at room temperature before plates were read on the Envision plate reader (Perkin Elmer) using a luminescent protocol. Data expressed as relative luminescent units (RLUs) were then normalized to control wells using Activity Base (IDBS). Zero percent effect (ZPE) was defined as RLUs generated from uninhibited HSD17B13 protein (vehicle control).

The structures appear in SMILES notation. Counter-ions that a name gives are not always drawn.

HSD17B13 enzyme, sequence (Q7Z5P4 20-300): as above

`COc1nn(C)cc1-c1ccc2cn([C@H]3CC[C@H](CNC(=O)c4cc(F)c(O)c(F)c4)CC3)nc2c1` [Example 42, 3,5-difluoro-4-hydroxy-N-({(1r,4r)-4-[6-(3-methoxy-1-methyl-1H-pyrazol-4-yl)-2H-indazol-2-yl]cyclohexyl}methyl) benzamide]: the IC50 – broadly, the concentration that inhibits the measured activity by half – at wild type human HSD17B13 amounted to 260 nM; on HSD17B13 enzyme it was 11 nM.
Regarding `O=C(NC[C@]12CC[C@](c3noc(-c4cccc(OS(=O)(=O)F)c4)n3)(CC1)CC2)c1cc(F)c(O)c(F)c1` [Example 190, 3-(3-{4-[(3,5-difluoro-4-hydroxybenzamido)methyl]bicyclo[2.2.2]octan-1-yl}-1,2,4-oxadiazol-5-yl) phenyl sulfurofluoridate], the figures for the IC50 on wild type human HSD17B13 and at HSD17B13 enzyme were 420 nM and 8.6 nM, respectively.
For `O=C(NC[C@H]1CC[C@H](n2cc3ccc(-c4cncnc4)cc3n2)CC1)c1cc(F)c(O)c(F)c1F` [Example 9, 2,3,5-Trifluoro-4-hydroxy-N-({(1r,4r)-4-[6-(pyrimidin-5-yl)-2H-indazol-2-yl]cyclohexyl}methyl)benzamide], in that order: 170 nM and 13 nM.
As to `O=C(NC[C@H]1CC[C@H](c2nc(-c3ccc(C(F)(F)F)cn3)no2)CC1)c1cc(F)c(O)c(F)c1F` [Example 210, 2,3,5-trifluoro-4-hydroxy-N-{[(1r,4r)-4-{3-[5-(trifluoromethyl)pyridin-2-yl]-1,2,4-oxadiazol-5-yl}cyclohexyl]methyl}benzamide], the results for the half-maximal inhibitory concentration (IC50) on wild type human HSD17B13 and on HSD17B13 enzyme were 450 nM and 18 nM, respectively.
Take `Cc1ccc(-c2ccc3cn([C@H]4CC[C@H](CNC(=O)c5cc(F)c(O)c(F)c5)CC4)nc3c2)nn1` [Example 63, 3,5-difluoro-4-hydroxy-N-({(1r,4r)-4-[6-(6-methylpyridazin-3-yl)-2H-indazol-2-yl]cyclohexyl}methyl) benzamide]: the 50% inhibitory concentration (IC50) came to 370 nM at wild type human HSD17B13 and 11 nM at HSD17B13 enzyme.
Turning to `COc1cnc(-c2noc([C@]34CC[C@](CNC(=O)c5cc(F)c(O)c(F)c5F)(CC3)CC4)n2)cn1` [Example 151, 2,3,5-trifluoro-4-hydroxy-N-({4-[3-(5-methoxypyrazin-2-yl)-1,2,4-oxadiazol-5-yl]bicyclo[2.2.2]octan-1-yl}methyl) benzamide], the IC50 turned out to be 170 nM on wild type human HSD17B13 and 8.2 nM on HSD17B13 enzyme.
For `Cn1ccc(-c2ccc3c(c2)CN([C@H]2CC[C@H](CNC(=O)c4cc(F)c(O)c(F)c4)CC2)C3=O)n1` [Example 20, 3,5-Difluoro-4-hydroxy-N-({(1r,4r)-4-[5-(1-methyl-1H-pyrazol-3-yl)-1-oxo-1,3-dihydro-2H-isoindol-2-yl]cyclohexyl}methyl)benzamide], in that order: 490 nM and 16 nM.
For `O=C(NC[C@]12CC[C@](c3nc(-c4ccc(C(F)(F)F)nn4)no3)(CC1)CC2)c1cc(F)c(O)cc1F` [Example 185, 2,5-difluoro-4-hydroxy-N-[(4-{3-[6-(trifluoromethyl)pyridazin-3-yl]-1,2,4-oxadiazol-5-yl}bicyclo[2.2.2]octan-1-yl)methyl]benzamide], the IC50 on wild type human HSD17B13 was determined as 140 nM; at HSD17B13 enzyme it was 3.7 nM.
In the same order, the values of `CC(C)(O)c1cncc(-c2ccc3cn([C@H]4CC[C@H](CNC(=O)c5cc(F)c(O)c(F)c5)CC4)nc3c2)c1` [Example 59, 3,5-difluoro-4-hydroxy-N-{[(1r,4r)-4-{6-[5-(2-hydroxypropan-2-yl)pyridin-3-yl]-2H-indazol-2-yl}cyclohexyl]methyl}benzamide] are 470 nM and 11 nM.
`Cc1ccc2nn([C@H]3CC[C@H](CNC(=O)c4cc(F)c(O)c(F)c4)CC3)cc2c1` [Example 131, 3,5-difluoro-4-hydroxy-N-{[(1r,4r)-4-(5-methyl-2H-indazol-2-yl)cyclo-hexyl]methyl} benzamide]: the IC50 on wild type human HSD17B13 stood at 270 nM; at HSD17B13 enzyme, 27 nM.
Turning to `O=C(NC[C@]12CC[C@](c3nc(-c4ccc(C(F)(F)F)nn4)no3)(CC1)CC2)c1ccc(O)c(F)c1F` [Example 180, 2,3-difluoro-4-hydroxy-N-[(4-{3-[6-(trifluoromethyl)pyridazin-3-yl]-1,2,4-oxadiazol-5-yl}bicyclo[2.2.2]octan-1-yl)methyl]benzamide], the results for the IC50 at wild type human HSD17B13 and on HSD17B13 enzyme were 470 nM and 11 nM, respectively.
In the same order, the values of `CC(C)(C)C(=O)Nc1ccc(-c2noc([C@H]3CC[C@H](CNC(=O)c4cc(F)c(O)c(F)c4)CC3)n2)nn1` [Example 17, N-{[(1r,4r)-4-{3-[6-(2,2-Dimethylpropanamido)pyridazin-3-yl]-1,2,4-oxadiazol-5-yl}cyclohexyl]methyl}-3,5-difluoro-4-hydroxybenzamide, ammonium salt] are 270 nM and 12 nM.
For `O=C(NC[C@H]1CC[C@H](n2cc3cc(OCC4CC4)ncc3n2)CC1)c1cc(F)c(O)c(F)c1` [Example 32, N-({(1r,4r)-4-[5-(cyclopropyl-methoxy)-2H-pyrazolo[3,4-c]pyridin-2-yl]cyclohexyl}methyl)-3,5-difluoro-4-hydroxybenzamide, ammonium salt], in that order: 400 nM and 25 nM.
In the same order, the values of `COc1ccc2nn([C@H]3CC[C@H](CNC(=O)c4cc(F)c(O)c(F)c4)CC3)cc2c1` [Example 129, 3,5-difluoro-4-hydroxy-N-{[(1r,4r)-4-(5-methoxy-2H-indazol-2-yl)cyclohexyl]methyl}benzamide] are 400 nM and 33 nM.
Regarding `O=C(NC[C@H]1CC[C@H](c2nc(-c3ccc(C(F)(F)F)nc3)no2)CC1)c1cc(F)c(O)cc1F` [Example 197, 2,5-difluoro-4-hydroxy-N-{[(1r,4r)-4-{3-[6-(trifluoromethyl)pyridin-3-yl]-1,2,4-oxadiazol-5-yl}cyclohexyl]methyl} benzamide], the IC50 at wild type human HSD17B13 was 470 nM; at HSD17B13 enzyme, 39 nM.
For `O=C(NC[C@]12CC[C@](c3nc(-c4cnc(C(F)(F)F)cn4)no3)(CC1)CC2)c1cc(F)c(O)cc1F` [Example 179, 2,5-difluoro-4-hydroxy-N-[(4-{3-[5-(trifluoromethyl)pyrazin-2-yl]-1,2,4-oxadiazol-5-yl}bicyclo[2.2.2]octan-1-yl)methyl]benzamide], in that order: 150 nM and 16 nM.
In the same order, the values of `Cn1cc(-c2ccc3cn([C@H]4CC[C@H](CNC(=O)c5cc(F)c(O)c(F)c5)CC4)nc3c2)c(C2CC2)n1` [Example 35, N-({(1r,4r)-4-[6-(3-cyclopropyl-1-methyl-1H-pyrazol-4-yl)-2H-indazol-2-yl]cyclohexyl}methyl)-3,5-difluoro-4-hydroxybenzamide] are 350 nM and 10 nM.
For `CC(C)n1cc(-c2ccc3cn([C@H]4CC[C@H](CNC(=O)c5cc(F)c(O)c(F)c5)CC4)nc3c2)cn1` [Example 40, 3,5-difluoro-4-hydroxy-N-{[(1r,4r)-4-{6-[1-(propan-2-yl)-1H-pyrazol-4-yl]-2H-indazol-2-yl}cyclohexyl]methyl} benzamide], in that order: 160 nM and 4.3 nM.
With `O=C(NC[C@H]1CC[C@H](n2cc3ccc(-c4ccncc4)cc3n2)CC1)c1cc(F)c(O)c(F)c1` [Example 61, 3,5-difluoro-4-hydroxy-N-({(1r,4r)-4-[6-(pyridin-4-yl)-2H-indazol-2-yl]cyclohexyl}methyl)benzamide], the values for the IC50 on wild type human HSD17B13 and at HSD17B13 enzyme were 120 nM and 4.8 nM, respectively.
For `N#Cc1cccc(-c2ccc3cn([C@H]4CC[C@H](CNC(=O)c5cc(F)c(O)c(F)c5)CC4)nc3c2)c1` [Example 55, N-({(1r,4r)-4-[6-(3-cyanophenyl)-2H-indazol-2-yl]cyclohexyl}methyl)-3,5-difluoro-4-hydroxybenzamide], the IC50 at wild type human HSD17B13 was determined as 230 nM; at HSD17B13 enzyme, 17 nM.
For `COc1ncc(-c2ccc3cn([C@H]4CC[C@H](CNC(=O)c5cc(F)c(O)c(F)c5)CC4)nc3c2)cn1` [Example 73, 3,5-difluoro-4-hydroxy-N-({(1r,4r)-4-[6-(2-methoxypyrimidin-5-yl)-2H-indazol-2-yl]cyclohexyl}methyl) benzamide], in that order: 170 nM and 13 nM.
For `Cc1cc(C)nc(-c2ccc3cn([C@H]4CC[C@H](CNC(=O)c5cc(F)c(O)c(F)c5)CC4)nc3c2)n1` [Example 52, N-({(1r,4r)-4-[6-(4,6-dimethylpyrimidin-2-yl)-2H-indazol-2-yl]cyclohexyl}methyl)-3,5-difluoro-4-hydroxybenzamide], in that order: 330 nM and 15 nM.

Source of the values: US20240150334A1, “HSD17B13 INHIBITORS AND/OR DEGRADERS” (Pfizer Inc., priority 2022, published 2024).
